Experimental data from patent US12054483B2, “Small molecule inhibitors of DYRK/CLK and uses thereof” (Arizona Board of Regents on Behalf of the University of …, priority 2018, dated 2024).

What follows are molecules tested against DYRK1A (Homo sapiens, UniProt Q13627) (assay: Affinity testing of compounds with DYRK1A (KD)). Details: DYRK1A affinity key classes.
Assay type: binding
Cc1nc2ccc(-c3ccnc(N)c3)nc2n1-c1cccc(CN2CCOCC2)c1 [Compound 153, 4-(2-methyl-3-(3-(morpholinomethyl)phenyl)-3H-imidazo[4,5-b]pyridin-5-yl)pyridin-2-amine] was tested, and the Kd was 0.5 to 100 nM. CC(=O)N1CCc2cc(-n3c(C)nc4ccc(-c5ccnc(N)c5)nc43)ccc21 [Compound 154, 1-(5-(5-(2-aminopyridin-4-yl)-2-methyl-3H-imidazo[4,5-b]pyridin-3-yl)indolin-1-yl)ethan-1-one] gave a Kd of 0.5 to 100 nM. Work on Cc1nc2ccc(-c3ccnc(N)c3)nc2n1-c1cccc(CN2C[C@H](C)O[C@@H](C)C2)c1 [Compound 156, 4-(3-(3-(((2S,6S)-2,6-dimethylmorpholino)methyl)phenyl)-2-methyl-3H-imidazo[4,5-b]pyridin-5-yl)pyridin-2-amine] yielded a Kd of 0.5 to 100 nM. With Cc1nc2ccc(-c3ccnc(N)c3)nc2n1-c1cccc(N2CCOCC2)c1 [Compound 157, 4-(2-methyl-3-(3-morpholinophenyl)-3H-imidazo[4,5-b]pyridin-5-yl)pyridin-2-amine] the Kd was 0.5 to 100 nM. With Cc1nc2ccc(-c3ccnc(N)c3)nc2n1-c1ccc(N2CCOCC2)nc1 [Compound 158, 4-(2-methyl-3-(6-morpholinopyridin-3-yl)-3H-imidazo[4,5-b]pyridin-5-yl)pyridin-2-amine] the Kd was 0.5 to 100 nM. Cc1nc2ccc(-c3ccnc(N)c3)nc2n1-c1ccc(CN2CCCCC2)cc1 [Compound 159, 4-(2-methyl-3-(4-(piperidin-1-ylmethyl)phenyl)-3H-imidazo[4,5-b]pyridin-5-yl)pyridin-2-amine] gave a Kd of 0.5 to 100 nM. For Cc1nc2ccc(-c3ccnc(N)c3)nc2n1-c1ccc(N2C[C@H]3C[C@H]2CO3)nc1 [Compound 160, 4-(3-(6-((1R,4S)-2-oxa-5-azabicyclo[2.2.1]heptan-5-yl)pyridin-3-yl)-2-methyl-3H-imidazo[4,5-b]pyridin-5-yl)pyridin-2-amine], the Kd was 0.5 to 100 nM. Molecule Cc1nc2ccc(-c3ccnc(N)c3)nc2n1-c1ccc(N2C[C@@H](C)O[C@@H](C)C2)nc1 [Compound 161, 4-(3-(6-((2S,6R)-2,6-dimethylmorpholino)pyridin-3-yl)-2-methyl-3H-imidazo[4,5-b]pyridin-5-yl)pyridin-2-amine] has a Kd of 0.5 to 100 nM. Work on Cc1cc(-n2c(C)nc3ccc(-c4ccnc(N)c4)nc32)cnc1N1CCOCC1 [Compound 162, 4-(2-methyl-3-(5-methyl-6-morpholinopyridin-3-yl)-3H-imidazo[4,5-b]pyridin-5-yl)pyridin-2-amine] yielded a Kd of 0.5 to 100 nM. With Cc1nc2ccc(-c3ccnc(N)c3)nc2n1-c1cnc(N2CCOCC2)c(C2CC2)c1 [Compound 163, 4-(3-(5-cyclopropyl-6-morpholinopyridin-3-yl)-2-methyl-3H-imidazo[4,5-b]pyridin-5-yl)pyridin-2-amine] the Kd was 0.5 to 100 nM. In the case of Cc1nc2ccc(-c3ccnc(N)c3)nc2n1-c1ccnc(N2CCOCC2)c1 [Compound 164, 4-(2-methyl-3-(2-morpholinopyridin-4-yl)-3H-imidazo[4,5-b]pyridin-5-yl)pyridin-2-amine], the Kd is reported as 0.5 to 100 nM. Cc1nc2ccc(-c3ccnc(N)c3)nc2n1-c1cnc(N2CCOCC2)c(Cl)c1 [Compound 166, 4-(3-(5-chloro-6-morpholinopyridin-3-yl)-2-methyl-3H-imidazo[4,5-b]pyridin-5-yl)pyridin-2-amine] showed a Kd of 0.5 to 100 nM. Cc1nc2ccc(-c3ccnc(N)c3)nc2n1-c1ccc(N2CC3CCC(C2)O3)c(F)c1 [Compound 167, 4-(3-(4-(8-oxa-3-azabicyclo[3.2.1]octan-3-yl)-3-fluorophenyl)-2-methyl-3H-imidazo[4,5-b]pyridin-5-yl)pyridin-2-amine] gave a Kd of 0.5 to 100 nM. For Cc1nc2ccc(-c3ccnc(N)c3)nc2n1-c1ccc(N2CCOCC2)c(Cl)c1 [Compound 168, 4-(3-(3-chloro-4-morpholinophenyl)-2-methyl-3H-imidazo[4,5-b]pyridin-5-yl)pyridin-2-amine], the Kd was 0.5 to 100 nM. Molecule Cc1nc2ccc(-c3ccnc(N)c3)nc2n1-c1ccc(N2CCC3(COC3)C2)c(F)c1 [Compound 169, 4-(3-(3-fluoro-4-(2-oxa-6-azaspiro[3.4]octan-6-yl)phenyl)-2-methyl-3H-imidazo[4,5-b]pyridin-5-yl)pyridin-2-amine] has a Kd of 0.5 to 100 nM. For Cc1nc2ccc(-c3ccnc(N)c3)nc2n1-c1ccc(N2CCOC[C@H]2C)c(F)c1 [Compound 170, (R)-4-(3-(3-fluoro-4-(3-methylmorpholino)phenyl)-2-methyl-3H-imidazo[4,5-b]pyridin-5-yl)pyridin-2-amine], the Kd was 0.5 to 100 nM. Cc1nc2ccc(-c3ccnc(N)c3)nc2n1-c1ccc(N2CCOC[C@@H]2C)c(F)c1 [Compound 171, (S)-4-(3-(3-fluoro-4-(3-methylmorpholino)phenyl)-2-methyl-3H-imidazo[4,5-b]pyridin-5-yl)pyridin-2-amine] showed a Kd of 0.5 to 100 nM. Cc1nc2ccc(-c3ccnc(N)c3)nc2n1-c1cc(F)c(N2CCOCC2)c(F)c1 [Compound 172, 4-(3-(3,5-difluoro-4-morpholinophenyl)-2-methyl-3H-imidazo[4,5-b]pyridin-5-yl)pyridin-2-amine] gave a Kd of 0.5 to 100 nM. Work on Cc1nc2ccc(-c3ccnc(N)c3)nc2n1-c1ccc(F)c(N2CCOCC2)c1 [Compound 173, 4-(3-(4-fluoro-3-morpholinophenyl)-2-methyl-3H-imidazo[4,5-b]pyridin-5-yl)pyridin-2-amine] yielded a Kd of 0.5 to 100 nM. With Cc1nc2ccc(-c3ccnc(N)c3)nc2n1-c1ccc2c(c1)CCN2C1CCOCC1 [Compound 174, 4-(2-methyl-3-(1-(tetrahydro-2H-pyran-4-yl)indolin-5-yl)-3H-imidazo[4,5-b]pyridin-5-yl)pyridin-2-amine] the Kd was 0.5 to 100 nM. For Cc1nc2ccc(-c3ccnc(Cl)c3)nc2n1-c1ccc(CN2CCOCC2)cc1 [Compound 176, 4-(4-(5-(2-chloropyridin-4-yl)-2-methyl-3H-imidazo[4,5-b]pyridin-3-yl)benzyl)morpholine], the Kd was 0.5 to 100 nM. Cc1nc2cccnc2n1-c1ccc(CN2CCOCC2)cc1 [Compound 177, 4-(4-(2-methyl-3H-imidazo[4,5-b]pyridin-3-yl)benzyl)morpholine] was tested, and the Kd was 501 to 10000 nM. Cc1nc2ccc(-c3ccnc4[nH]ccc34)nc2n1-c1cccc(CN2CCOCC2)c1 [Compound 178, 4-(3-(2-methyl-5-(1H-pyrrolo[2,3-b]pyridin-4-yl)-3H-imidazo[4,5-b]pyridin-3-yl)benzyl)morpholine] showed a Kd of 0.5 to 100 nM. Cc1nc2ccc(-c3ccnc4[nH]ccc34)nc2n1-c1ccc(CN2CCOCC2)cc1 [Compound 179, 4-(4-(2-methyl-5-(1H-pyrrolo[2,3-b]pyridin-4-yl)-3H-imidazo[4,5-b]pyridin-3-yl)benzyl)morpholine] was tested, and the Kd was 0.5 to 100 nM. Molecule Cc1nc2cnc(-c3ccnc(N)c3)cc2n1-c1cccc(CN2CCOCC2)c1 [Compound 180, 4-(2-methyl-1-(3-(morpholinomethyl)phenyl)-1H-imidazo[4,5-c]pyridin-6-yl)pyridin-2-amine] has a Kd of 101 to 500 nM. Molecule Cc1nc2ccc(-c3ccnc(N)c3)nc2n1-c1ccc(N2C[C@@H](C)O[C@@H](C)C2)c(F)c1 [Compound 181, 4-(3-(4-((2S,6R)-2,6-dimethylmorpholino)-3-fluorophenyl)-2-methyl-3H-imidazo[4,5-b]pyridin-5-yl)pyridin-2-amine] has a Kd of 0.5 to 100 nM. Work on Cc1nc2ccc(-c3ccnc(N)c3)nc2n1-c1ccc(N2CCS(=O)(=O)CC2)c(F)c1 [Compound 182, 4-(4-(5-(2-aminopyridin-4-yl)-2-methyl-3H-imidazo[4,5-b]pyridin-3-yl)-2-fluorophenyl)thiomorpholine 1,1-dioxide] yielded a Kd of 0.5 to 100 nM. For Cc1nc2ccc(-c3ccnc(N)c3)nc2n1-c1ccc(N2C[C@H](C)O[C@@H](C)C2)c(F)c1 [Compound 183, 4-(3-(4-((2S,6S)-2,6-dimethylmorpholino)-3-fluorophenyl)-2-methyl-3H-imidazo[4,5-b]pyridin-5-yl)pyridin-2-amine], the Kd was 0.5 to 100 nM. With CC(=O)N1CCN(c2ccc(-n3c(C)nc4ccc(-c5ccnc(N)c5)nc43)cc2F)CC1 [Compound 184] the Kd was 0.5 to 100 nM.
